In the supplement of paper PMC8882468:

Assays:
Assay in all cases: CTG-3D luminescence at 96 h relative to day-0 seeding control (ratio to day 0); higher = more growth / less cytotoxicity; PDxO 3D drug screen, 96 h, CTG-3D normalised to day-0 seeding control.
HCI-017.E2 = system: HCI-017.E2 (organoid from an ER-positive breast cancer xenograft)
HCI-002 = system: HCI-002 (organoid from a triple-negative breast cancer xenograft)
HCI-015 = system: HCI-015 (organoid from a triple-negative breast cancer xenograft)
MDA-MB-231 = system: MDA-MB-231
HCI-023 = system: HCI-023 (organoid from a triple-negative breast cancer xenograft)
HCI-025 = system: HCI-025 (organoid from a breast cancer xenograft)

CC[C@H](NC(=O)[C@H](C)NC)C(=O)N1C[C@@H](O)C[C@H]1Cc1c(-c2[nH]c3cc(F)ccc3c2C[C@@H]2C[C@H](O)CN2C(=O)[C@H](CC)NC(=O)[C@H](C)NC)[nH]c2cc(F)ccc12 [birinapant]
CTG-3D luminescence at 96 h
Conditions | 12.5 pM | 0.00025 µM | 0.005 µM | 0.1 µM | 1 µM | 10 µM | 100 µM | 625 fM
HCI-017.E2 | 1.76 | 2.26 | 2.2 | 2.01 | 2.21 | 2.12 | 1.51 | 2.35
MDA-MB-231 | 4.36 | 4.2 | 4.35 | 1.96 | 2 | 2.03 | 2.41 | 4.39

CTG-3D luminescence at 96 h
Conditions | 12.5 pM | 0.00025 µM | 0.005 µM | 0.1 µM | 1 µM | 10 µM | 100 µM | 625 fM
HCI-002, days in culture: 62 | 3.08 | 2.09 | 2.65 | 1.51 | 1.03 | 0.891 | 0.234 | 2.96
HCI-002, days in culture: 82 | 3 | 2.82 | 1.96 | 1.59 | 0.689 | 0.62 | 0.148 | 3.06
HCI-002, days in culture: 91 | 4.14 | 3.62 | 3.4 | 2.64 | 1.62 | 1.38 | 0.408 | 4.22
HCI-002, days in culture: 191 | 2.67 | 2.28 | 2.58 | 1.73 | 1.31 | 0.959 | 0.188 | 2.59
HCI-002, days in culture: 209 | 2.21 | 2.16 | 1.88 | 0.886 | 0.527 | 0.44 | 0.127 | 2.18
HCI-002, days in culture: 227 | 6.23 | 5.92 | 5.21 | 2.45 | 1.39 | 1.41 | -0.1 | 6.13
HCI-015, days in culture: 172 | 2.01 | 1.64 | 0.598 | 0.172 | 0.485 | 0.234 | 0.0277 | 1.3
HCI-015, days in culture: 191 | 0.803 | 0.19 | 0.16 | 0.126 | 0.32 | 0.224 | 0.0253 | 0.41
HCI-015, days in culture: 218 | 1.68 | 0.775 | 0.248 | 0.111 | 0.125 | 0.185 | 0.0267 | 1.8
HCI-017.E2, days in culture: 85 | 3.2 | 2.88 | 2.45 | 2.38 | 2.5 | 1.82 | 1.64 | 2.6
HCI-023, days in culture: 111 | 1.31 | 0.929 | 0.368 | 0.0512 | 0.0433 | 0.0326 | 0.0111 | 1.35
HCI-023, days in culture: 128 | 1.21 | 1.13 | 0.23 | 0.0897 | 0.044 | 0.0472 | 0.006598 | 1.75
HCI-025, days in culture: 172 | 2.24 | 1.37 | 1.16 | 0.15 | 0.319 | 0.166 | 0.0157 | 1.82
HCI-025, days in culture: 209 | 1.87 | 1.95 | 1.01 | 0.628 | 0.388 | 0.374 | 0.241 | 1.9
HCI-025, days in culture: 218 | 1.84 | 1.78 | 1.79 | 1.23 | 0.859 | 0.811 | 0.542 | 1.83

COc1cccc2c1C(=O)c1c(O)c3c(c(O)c1C2=O)C[C@@](O)(C(=O)CO)C[C@@H]3O[C@H]1C[C@H](N)[C@H](O)[C@H](C)O1 [doxorubicin]
CTG-3D luminescence at 96 h
Conditions | 12.5 pM | 0.00025 µM | 0.005 µM | 0.1 µM | 1 µM | 10 µM | 100 µM | 625 fM
HCI-017.E2 | 1.87 | 2.06 | 2.07 | 1.89 | 1.2724 | 0.484 | 0.598 | 2.26
MDA-MB-231 | 4.38 | 4.45 | 4.38 | 3.75 | 1.48 | 0.458 | 0.288 | 4.4

CTG-3D luminescence at 96 h
Conditions | 12.5 pM | 0.00025 µM | 0.005 µM | 0.1 µM | 1 µM | 10 µM | 100 µM | 625 fM
HCI-002, days in culture: 62 | 2.87 | 2.62 | 2.59 | 1.61 | 0.668 | 0.0335 | 0.00573 | 2.88
HCI-002, days in culture: 82 | 3.24 | 2.83 | 2.22 | 2.02 | 0.999 | 0.0349 | 0.0154 | 3.02
HCI-002, days in culture: 91 | 4.09 | 3.38 | 3.24 | 2.3 | 1.03 | 0.0844 | 0.0322 | 3.96
HCI-002, days in culture: 191 | 2.74 | 2.53 | 2.51 | 1.69 | 1.02 | 0.0535 | 0.00895 | 2.52
HCI-002, days in culture: 209 | 2.54 | 2.37 | 2.28 | 1.51 | 0.836 | 0.0193 | 0.00843 | 2.44
HCI-002, days in culture: 227 | 4.92 | 5.5 | 4.24 | 3.32 | 1.62 | 0.0266 | -0.0178 | 5.72
HCI-015, days in culture: 172 | 2.4 | 1.39 | 2.21 | 0.657 | 0.0852 | 0.0438 | 0.0135 | 2.35
HCI-015, days in culture: 191 | 2.38 | 1.36 | 1.43 | 0.382 | 0.0711 | 0.0286 | 0.019 | 1.61
HCI-015, days in culture: 218 | 1.76 | 1.38 | 1.98 | 0.575 | 0.0701 | 0.0582 | 0.0222 | 1.86
HCI-017.E2, days in culture: 85 | 2.94 | 3.18 | 2.56 | 2.01 | 1.71 | 0.616 | 0.808 | 2.4
HCI-023, days in culture: 111 | 1.54 | 1.21 | 1.32 | 1.1 | 0.426 | 0.00296 | 0.00755 | 1.45
HCI-023, days in culture: 128 | 1.92 | 1.73 | 1.62 | 1.33 | 0.321 | 0.00812 | 0.00367 | 2.08
HCI-025, days in culture: 172 | 2.56 | 1.67 | 2.22 | 1.81 | 0.663 | -0.00377 | -0.0121 | 2.18
HCI-025, days in culture: 209 | 2.17 | 2.18 | 2.33 | 1.37 | 0.406 | 0.0188 | -0.00838 | 1.45
HCI-025, days in culture: 218 | 1.71 | 1.89 | 1.74 | 1.66 | 0.23 | 0.0154 | -0.0116 | 1.66
